Reference: patent US10167262B2, “Herbicidal substituted 3-arylpyrazoles” (FMC CORPORATION, priority 2014, dated 2019)
Where two headings read alike, the source gives them in different places.

Columns and labels:
Format in all cases: in vivo
[1] = system: barnyardgrass (Echinochloa crus-galli); test: Test A pre-/postemergence greenhouse herbicide test, visual injury rating 0-100; conditions: for pest or weed control at 500 g/ha: 500 g ai/ha
Method in brief: (§1)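 Ratings are visual, 0 to 100 relative to untreated plants, taken approximately 10 days post-treatment in the greenhouse. Both preemergence soil and postemergence foliar routes were used with surfactant-containing non-phytotoxic solvent formulations.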

corn (Zea mays) = test: as above; conditions: for plant injury at 500 g/ha: 500 g ai/ha
Method in brief: as §1

[2] = system: giant foxtail (Setaria faberii); test: as above; conditions: for pest or weed control at 500 g/ha: 500 g ai/ha
Method in brief: as §1

[3] = system: large (Lg) crabgrass (Digitaria sanguinalis); test: as above; conditions: for pest or weed control at 500 g/ha: 500 g ai/ha
Method in brief: as §1

[4] = system: morningglory (Ipomoea spp.); test: as above; conditions: for pest or weed control at 500 g/ha: 500 g ai/ha
Method in brief: as §1

[5] = system: pigweed (Amaranthus retroflexus); test: as above; conditions: for pest or weed control at 500 g/ha: 500 g ai/ha
Method in brief: as §1

[6] = system: velvetleaf (Abutilon theophrasti); test: as above; conditions: for pest or weed control at 500 g/ha: 500 g ai/ha
Method in brief: as §1

[7] = system: wheat (Triticum aestivum); test: as above
Method in brief: as §1

[8] = system: giant foxtail (Setaria faberii); test: Test C pre-/postemergence greenhouse test, plant response rating 0-100; conditions: Setaria faberi, post-emergence, Postemergence
Method in brief: (§2)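 Plants were scored visually against controls 13–15 days after treatment on a 0–100 scale, 100 meaning complete control. Test chemicals, formulated in surfactant-containing non-phytotoxic solvent, went preemergence onto seeds in loam–sand blend or postemergence onto 1- to 4-leaf plants (2–18 cm) grown in peat-based mix.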

[9] = system: johnsongrass (Sorghum halepense); test: as above; conditions: Sorghum halepense, post-emergence, Postemergence
Method in brief: as §2

[10] = system: winter wheat (Triticum aestivum); test: as above; conditions: Triticum aestivum, post-emergence, Postemergence
Method in brief: as §2

[11] = system: chickweed (common chickweed, Stellaria media); test: Test C postemergence greenhouse test, plant response rating 0-100; conditions: Stellaria media, post-emergence
Method in brief: (§3)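 Formulated compounds applied postemergence; plants 1- to 4-leaf stage. Evaluated visually vs. untreated controls after roughly two weeks (13–15 d) under greenhouse conditions; 100 denotes complete control.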

kochia (Kochia scoparia) = test: as above; conditions: Bassia scoparia, post-emergence
Method in brief: as §3

wild oat (Avena fatua) = test: as above; conditions: Avena fatua, post-emergence
Method in brief: as §3

## CCCn1cc(C(=O)c2ccccc2)c(-c2cc(Cl)cc(Cl)c2)n1 [Compound 61, [3-(3,5-dichlorophenyl)-1-propyl-1H-pyrazol-4-yl]phenylmethanone]
[1]; Echinochloa crus-galli, post-emergence, 240 h, Postemergence, 125 g ai/ha, read-out: Plant response rating (0 to 100 scale), Barnyardgrass
  pest or weed control at 125 g/ha: 0%
[1]; Echinochloa crus-galli, post-emergence, 240 h, Postemergence, read-out: Plant response rating (0 to 100 scale), Barnyardgrass
  pest or weed control at 500 g/ha: 0%
[1]; Echinochloa crus-galli, pre-emergence, 240 h, Preemergence, read-out: Plant response rating (0 to 100 scale), Barnyardgrass
  pest or weed control at 500 g/ha: 0%
[1]; Preemergence, 125 g ai/ha
  Barnyardgrass plant response rating (0 = no effect, 100 = complete control): 0
Corn (Zea mays); Preemergence, 125 g ai/ha
  Corn plant response rating (0 = no effect, 100 = complete control): 0
Corn (Zea mays); Zea mays, post-emergence, 240 h, Postemergence, 125 g ai/ha, read-out: Plant response rating (0 to 100 scale), Corn
  plant injury at 125 g/ha: 0%
Corn (Zea mays); Zea mays, post-emergence, 240 h, Postemergence, read-out: Plant response rating (0 to 100 scale), Corn
  plant injury at 500 g/ha: 0%
Corn (Zea mays); Zea mays, pre-emergence, 240 h, Preemergence, read-out: Plant response rating (0 to 100 scale), Corn
  plant injury at 500 g/ha: 0%
[2]; Preemergence, 125 g ai/ha
  Foxtail, Giant plant response rating (0 = no effect, 100 = complete control): 0
[2]; Setaria faberi, post-emergence, 240 h, Postemergence, 125 g ai/ha, read-out: Plant response rating (0 to 100 scale), Foxtail, Giant
  pest or weed control at 125 g/ha: 0%
[2]; Setaria faberi, post-emergence, 240 h, Postemergence, read-out: Plant response rating (0 to 100 scale), Foxtail, Giant
  pest or weed control at 500 g/ha: 0%
[2]; Setaria faberi, pre-emergence, 240 h, Preemergence, read-out: Plant response rating (0 to 100 scale), Foxtail, Giant
  pest or weed control at 500 g/ha: 0%
[3]; Digitaria sanguinalis, post-emergence, 240 h, Postemergence, 125 g ai/ha, read-out: Plant response rating (0 to 100 scale), Crabgrass, Large
  pest or weed control at 125 g/ha: 0%
[3]; Digitaria sanguinalis, post-emergence, 240 h, Postemergence, read-out: Plant response rating (0 to 100 scale), Crabgrass, Large
  pest or weed control at 500 g/ha: 0%
[3]; Digitaria sanguinalis, pre-emergence, 240 h, Preemergence, read-out: Plant response rating (0 to 100 scale), Crabgrass, Large
  pest or weed control at 500 g/ha: 0%
[3]; Preemergence, 125 g ai/ha
  Crabgrass, Large plant response rating (0 = no effect, 100 = complete control): 0
[4]; Ipomoea, post-emergence, 240 h, Postemergence, 125 g ai/ha, read-out: Plant response rating (0 to 100 scale), Morningglory
  pest or weed control at 125 g/ha: 0%
[4]; Ipomoea, post-emergence, 240 h, Postemergence, read-out: Plant response rating (0 to 100 scale), Morningglory
  pest or weed control at 500 g/ha: 0%
[4]; Ipomoea, pre-emergence, 240 h, Preemergence, read-out: Plant response rating (0 to 100 scale), Morningglory
  pest or weed control at 500 g/ha: 0%
[4]; Preemergence, 125 g ai/ha
  Morningglory plant response rating (0 = no effect, 100 = complete control): 0
[5]; Amaranthus retroflexus, post-emergence, 240 h, Postemergence, 125 g ai/ha, read-out: Plant response rating (0 to 100 scale), Pigweed
  pest or weed control at 125 g/ha: 80%
[5]; Amaranthus retroflexus, post-emergence, 240 h, Postemergence, read-out: Plant response rating (0 to 100 scale), Pigweed
  pest or weed control at 500 g/ha: 90%
[5]; Amaranthus retroflexus, pre-emergence, 240 h, Preemergence, read-out: Plant response rating (0 to 100 scale), Pigweed
  pest or weed control at 500 g/ha: 90%
[5]; Preemergence, 125 g ai/ha
  Pigweed plant response rating (0 = no effect, 100 = complete control): 0
[6]; Abutilon theophrasti, post-emergence, 240 h, Postemergence, 125 g ai/ha, read-out: Plant response rating (0 to 100 scale), Velvetleaf
  pest or weed control at 125 g/ha: 80%
[6]; Abutilon theophrasti, post-emergence, 240 h, Postemergence, read-out: Plant response rating (0 to 100 scale), Velvetleaf
  pest or weed control at 500 g/ha: 90%
[6]; Abutilon theophrasti, pre-emergence, 240 h, Preemergence, read-out: Plant response rating (0 to 100 scale), Velvetleaf
  pest or weed control at 500 g/ha: 40%
[6]; Preemergence, 125 g ai/ha
  Velvetleaf plant response rating (0 = no effect, 100 = complete control): 0
[7]; Preemergence, 125 g ai/ha
  Wheat plant response rating (0 = no effect, 100 = complete control): 0
[7]; Triticum aestivum, post-emergence, 240 h, Postemergence, 125 g ai/ha, read-out: Plant response rating (0 to 100 scale), Wheat
  plant injury at 125 g/ha: 0%
[7]; Triticum aestivum, post-emergence, 240 h, Postemergence, 500 g ai/ha, read-out: Plant response rating (0 to 100 scale), Wheat
  plant injury at 500 g/ha: 0%
[8]; 31 g ai/ha, read-out: Plant response rating (0 to 100), Foxtail, Giant
  pest or weed control at 31 g/ha: 5%
[8]; 62 g ai/ha, read-out: Plant response rating (0 to 100), Foxtail, Giant
  pest or weed control at 62 g/ha: 5%
[8]; 125 g ai/ha, read-out: Plant response rating (0 to 100), Foxtail, Giant
  pest or weed control at 125 g/ha: 5%
[8]; 250 g ai/ha, scale 0 to 100
  pest or weed control at 250 g/ha: 10%
[9]; 62 g ai/ha, read-out: Plant response rating (0 to 100), Johnsongrass
  pest or weed control at 62 g/ha: 10%
[9]; 125 g ai/ha, read-out: Plant response rating (0 to 100), Johnsongrass
  pest or weed control at 125 g/ha: 10%
[9]; 250 g ai/ha, scale 0 to 100
  pest or weed control at 250 g/ha: 10%
[10]; 62 g ai/ha, read-out: Plant response rating (0 to 100), Wheat
  plant injury at 62 g/ha: 0%
[10]; 125 g ai/ha, read-out: Plant response rating (0 to 100), Wheat
  plant injury at 125 g/ha: 0%
[10]; 250 g ai/ha, scale 0 to 100
  plant injury at 250 g/ha: 0%
[11]; 31 g ai/ha
  pest or weed control at 31 g/ha: 20%
[11]; 125 g ai/ha
  pest or weed control at 125 g/ha: 75%
[11]; 250 g ai/ha, scale 0 to 100
  pest or weed control at 250 g/ha: 75%
Kochia (Kochia scoparia); 62 g ai/ha
  pest or weed control at 62 g/ha: 40%
Kochia (Kochia scoparia); 125 g ai/ha
  pest or weed control at 125 g/ha: 45%
Kochia (Kochia scoparia); 250 g ai/ha, scale 0 to 100
  pest or weed control at 250 g/ha: 50%
Wild oat (Avena fatua); 62 g ai/ha
  pest or weed control at 62 g/ha: 0%
Wild oat (Avena fatua); 125 g ai/ha
  pest or weed control at 125 g/ha: 0%
Wild oat (Avena fatua); 250 g ai/ha, scale 0 to 100
  pest or weed control at 250 g/ha: 0%
